Data on 34 molecules can be found in patent US8278345B2, “Inhibitors of glutaminyl cyclase” (Probiodrug AG, priority 2006, dated 2012).

The structures appear in SMILES notation. Read-outs that look alike come from different tables or passages of the source.

One may read the IC50 as the concentration that inhibits the measured activity by half.

For this assay, the target named is hQC (Homo sapiens, UniProt Q16769). Briefly: Inhibitor assay for glutaminyl cyclase activity (fluorometric, H-Gln-βNA / H-Gln-AMC). It counts as biochemical. The method, boiled down: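 Coupled fluorometric assay at 30 °C with pyroglutamyl aminopeptidase, in Tris/HCl pH 8.0 with EDTA, substrate H-Gln-βNA (0.2 mM; ex/em 320/410 nm) or H-Gln-AMC (ex/em 380/460 nm), initiated by QC. Screening: 4 mM inhibitor, substrate at 1 KM; Ki from progress curves fitted to competitive inhibition.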

Where [1] appears, read: compound from preparative synthesis, purified, read-out: IC50 hQC.

Sequence of hQC (Q16769 29-361): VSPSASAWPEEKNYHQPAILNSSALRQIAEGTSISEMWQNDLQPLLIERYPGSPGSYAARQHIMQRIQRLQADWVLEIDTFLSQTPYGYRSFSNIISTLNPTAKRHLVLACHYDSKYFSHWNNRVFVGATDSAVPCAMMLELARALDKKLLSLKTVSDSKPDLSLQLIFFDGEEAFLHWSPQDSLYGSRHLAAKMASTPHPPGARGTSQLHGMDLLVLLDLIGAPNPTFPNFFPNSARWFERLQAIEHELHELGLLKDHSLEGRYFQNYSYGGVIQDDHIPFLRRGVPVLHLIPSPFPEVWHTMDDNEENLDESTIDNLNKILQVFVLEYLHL

For `Cc1ccc(C2C(c3c[nH]c4ccccc34)=C(O)C(=O)N2CCCn2ccnc2)cc1` (stereo not shown) [Compound 114, 3-Hydroxy-1-(3-imidazol-1-yl-propyl)-4-(1H-indol-3-yl)-5-p-tolyl-1,5-dihydro-pyrrol-2-one], the concentration for half-maximal inhibition (IC50) by setting is: under setting [1], 266 nM; (read-out: IC50) 40 nM.

As for `O=C(C1=C(O)C(=O)N(c2ccc3[nH]cnc3c2)C1)C1CCCCC1` [Compound 441, 1-(1H-Benzoimidazol-5-yl)-4-cyclohexanecarbonyl-3-hydroxy-1,5-dihydro-pyrrol-2-one], the IC50 (read-out: IC50) came to 850 nM.

`CC1=C(O)C(=O)N(c2ccc3[nH]cnc3c2)C1c1cc(C)ccc1C` (stereo not shown) [Compound 417, 1-(1H-Benzoimidazol-5-yl)-5-(2,5-dimethyl-phenyl)-3-hydroxy-4-methyl-1,5-dihydro-pyrrol-2-one]: the 50% inhibitory concentration (IC50) (read-out: IC50) is 9130 nM.

As for `O=C1C(O)=C(c2c[nH]c3ccccc23)C(c2cc(Cl)cc(Cl)c2O)N1CCCn1ccnc1` (stereo not shown) [Compound 113, 5-(3,5-Dichloro-2-hydroxy-phenyl)-3-hydroxy-1-(3-imidazol-1-yl-propyl)-4-(1H-indol-3-yl)-1,5-dihydro-pyrrol-2-one], the IC50 (read-out: IC50) was 1300 nM.

In the case of `CC(C)(C)C(=O)C1=C(O)C(=O)N(c2ccc3[nH]cnc3c2)C1` [Compound 465, 1-(1H-Benzoimidazol-5-yl)-4-(2,2-dimethyl-propionyl)-3-hydroxy-1,5-dihydro-pyrrol-2-one], the IC50 (read-out: IC50) came out at 6160 nM.

On to `CC(C)(C)C(=O)C1=C(O)C(=O)N(c2ccc3[nH]cnc3c2)C1c1ccc(-c2ccccn2)cc1` (stereo not shown) [Compound 401, 1-(1H-Benzoimidazol-5-yl)-4-(2,2-dimethyl-propionyl)-3-hydroxy-5-(4-pyridin-2-yl-phenyl)-1,5-dihydro-pyrrol-2-one], for which the half-maximal inhibitory concentration (IC50) (read-out: IC50) amounted to 3010 nM.

With `CC(C)C1=C(O)C(=O)N(CCCn2ccnc2)C1c1ccco1` (stereo not shown) [Compound 72, 5-Furan-2-yl-3-hydroxy-1-(3-imidazol-1-yl-propyl)-4-isopropyl-1,5-dihydro-pyrrol-2-one], the IC50 (read-out: IC50) came to 2200 nM.

Turning to `Cc1cccc(C2C(C(C)C)=C(O)C(=O)N2c2ccc3[nH]cnc3c2)n1` (stereo not shown) [Compound 430, 1-(1H-Benzoimidazol-5-yl)-3-hydroxy-4-isopropyl-5-(6-methyl-pyridin-2-yl)-1,5-dihydro-pyrrol-2-one], the IC50 (read-out: IC50) came out at 9490 nM.

For `O=C(C1=C(O)C(=O)N(c2ccc3[nH]cnc3c2)C1c1cccc2cccnc12)C1CC1` (stereo not shown) [Compound 443, 1-(1H-Benzoimidazol-5-yl)-4-cyclopropanecarbonyl-3-hydroxy-5-quinolin-8-yl-1,5-dihydro-pyrrol-2-one], under “read-out: IC50”, the concentration for half-maximal inhibition (IC50) was 4630 nM.

In the case of `CCC1=C(O)C(=O)N(c2ccc3[nH]cnc3c2)C1c1cc(C)ccc1O` (stereo not shown) [Compound 282, 1-(1H-Benzoimidazol-5-yl)-4-ethyl-3-hydroxy-5-(2-hydroxy-5-methyl-phenyl)-1,5-dihydro-pyrrol-2-one], the IC50 (read-out: IC50) amounted to 670 nM.

`CC1=C(O)C(=O)N(CCCn2ccnc2)C1Cc1ccccc1` (stereo not shown) [Compound 41, 5-Benzyl-3-hydroxy-1-(3-imidazol-1-yl-propyl)-4-methyl-1,5-dihydro-pyrrol-2-one]: the IC50 (read-out: IC50) stood at 1300 nM.

Consider `CC1C(c2ccc(O)cc2)=C(O)C(=O)N1CCCn1ccnc1` (stereo not shown) [Compound 160, 3-Hydroxy-4-(4-hydroxy-phenyl)-1-(3-imidazol-1-yl-propyl)-5-methyl-1,5-dihydro-pyrrol-2-one], for which the IC50 (read-out: IC50) was determined as 400 nM.

Turning to `O=C1C(O)=C(c2ccc(O)cc2)C(c2ccccc2F)N1CCCn1ccnc1` (stereo not shown) [Compound 180, 5-(2-Fluoro-phenyl)-3-hydroxy-4-(4-hydroxy-phenyl)-1-(3-imidazol-1-yl-propyl)-1,5-dihydro-pyrrol-2-one], the half-maximal inhibitory concentration (IC50) by setting is: under setting [1], 344 nM; (read-out: IC50) 40 nM.

For the molecule `CCCC(=O)C1=C(O)C(=O)N(c2ccc3[nH]cnc3c2)C1C1CCOC1` (stereo not shown) [Compound 425, 1-(1H-Benzoimidazol-5-yl)-4-butyryl-3-hydroxy-5-(tetrahydro-furan-3-yl)-1,5-dihydro-pyrrol-2-one], for the setting “read-out: IC50”, the IC50 is 1840 nM.

As for `CC(C)C1=C(O)C(=O)N(c2ccc3[nH]cnc3c2)C1c1csc2ccccc12` (stereo not shown) [Compound 275, 5-Benzo[b]thiophen-3-yl-1-(1H-benzoimidazol-5-yl)-3-hydroxy-4-isopropyl-1,5-dihydro-pyrrol-2-one], the IC50 (read-out: IC50) came to 6070 nM.

With `CCCCCC1=C(O)C(=O)N(c2ccc3[nH]cnc3c2)C1c1cccc(F)c1` (stereo not shown) [Compound 323, 1-(1H-Benzoimidazol-5-yl)-5-(3-fluoro-phenyl)-3-hydroxy-4-pentyl-1,5-dihydro-pyrrol-2-one], the IC50 (read-out: IC50) was 1660 nM.

With `CC(=O)C1=C(O)C(=O)N(c2ccc3[nH]cnc3c2)C1c1cc[n+]([O-])cc1` (stereo not shown) [Compound 397, 4-Acetyl-1-(1H-benzoimidazol-5-yl)-3-hydroxy-5-(1-oxy-pyridin-4-yl)-1,5-dihydro-pyrrol-2-one], the IC50 (read-out: IC50) was determined as 1210 nM.

As for `O=C1C(O)=C(c2ccccc2)C(c2cccs2)N1CCCn1ccnc1` (stereo not shown) [Compound 103, 3-Hydroxy-1-(3-imidazol-1-yl-propyl)-4-phenyl-5-thiophen-2-yl-1,5-dihydro-pyrrol-2-one], the IC50 (read-out: IC50) came out at 1300 nM.

Turning to `Cc1ccc(C2C(C(C)C)=C(O)C(=O)N2CCCn2ccnc2)cc1C` (stereo not shown) [Compound 61, 5-(3,4-Dimethyl-phenyl)-3-hydroxy-1-(3-imidazol-1-yl-propyl)-4-isopropyl-1,5-dihydro-pyrrol-2-one], under “read-out: IC50”, the half-maximal inhibitory concentration (IC50) was found to be 400 nM.

For `Cc1cccc(C2C(c3cccc(O)c3)=C(O)C(=O)N2c2ccc3[nH]cnc3c2)c1` (stereo not shown) [Compound 434, 1-(1H-Benzoimidazol-5-yl)-3-hydroxy-4-(3-hydroxy-phenyl)-5-m-tolyl-1,5-dihydro-pyrrol-2-one], under “read-out: IC50”, the half-inhibitory concentration (IC50) is 3640 nM.

`O=C1C(O)=C(c2c[nH]c3ccccc23)C(Cc2ccccc2)N1CCCn1ccnc1` (stereo not shown) [Compound 134, 5-Benzyl-3-hydroxy-1-(3-imidazol-1-yl-propyl)-4-(1H-indol-3-yl)-l 5-dihydro-pyrrol-2-one]: where the note is “read-out: IC50”, the half-maximal inhibitory concentration (IC50) is 400 nM.

Regarding `CC(=O)C1=C(O)C(=O)N(c2ccc3[nH]cnc3c2)C1c1ccc(N2CCCC2)cc1` (stereo not shown) [Compound 345, 4-Acetyl-1-(1H-benzoimidazol-5-yl)-3-hydroxy-5-(4-pyrrolidin-1-yl-phenyl)-1,5-dihydro-pyrrol-2-one], under “read-out: IC50”, the IC50 is 1570 nM.

Regarding `COc1ccc(C2C(c3ccc(O)cc3)=C(O)C(=O)N2CCCn2ccnc2)cc1` (stereo not shown) [Compound 156, 3-Hydroxy-4-(4-hydroxy-phenyl)-1-(3-imidazol-1-yl-propyl)-5-(4-methoxy-phenyl)-1,5-dihydro-pyrrol-2-one], the concentration for half-maximal inhibition (IC50) under setting [1] worked out at 88 nM and the half-inhibitory concentration (IC50) (read-out: IC50) amounted to 40 nM.

Consider `O=C(C1=C(O)C(=O)N(c2ccc3[nH]cnc3c2)C1c1ccc(Cl)c(C(F)(F)F)c1)C1CCCCC1` (stereo not shown) [Compound 454, 1-(1H-Benzoimidazol-5-yl)-5-(4-chloro-3-trifluoromethyl-phenyl)-4-cyclohexanecarbonyl-3-hydroxy-1,5-dihydro-pyrrol-2-one], for which the IC50 (read-out: IC50) was 2560 nM.

Turning to `CC1=C(O)C(=O)N(CCCn2ccnc2)C1c1ncc[nH]1` (stereo not shown) [Compound 40, 3-Hydroxy-5-(1H-imidazol-2-yl)-1-(3-imidazol-1-yl-propyl)-4-methyl-1,5-dihydro-pyrrol-2-one], the IC50 (read-out: IC50) worked out at 2200 nM.

For `CC1=C(O)C(=O)N(CCCn2ccnc2)C1c1cc[nH]n1` (stereo not shown) [Compound 23, 3-Hydroxy-1-(3-imidazol-1-yl-propyl)-4-methyl-5-(1H-pyrazol-3-yl)-1,5-dihydro-pyrrol-2-one], for the setting “read-out: IC50”, the half-maximal inhibitory concentration (IC50) was 7600 nM.

For `O=C(C1=C(O)C(=O)N(c2ccc3[nH]cnc3c2)C1c1ccnc2ccccc12)C1CC1` (stereo not shown) [Compound 296, 1-(1H-Benzoimidazol-5-yl)-4-cyclopropanecarbonyl-3-hydroxy-5-quinolin-4-yl-1,5-dihydro-pyrrol-2-one], the IC50 (read-out: IC50) came out at 3000 nM.

In the case of `Cc1ccc(O)c(C2C(C(=O)C3CC3)=C(O)C(=O)N2c2ccc3[nH]cnc3c2)c1` (stereo not shown) [Compound 343, 1-(1H-Benzoimidazol-5-yl)-4-cyclopropanecarbonyl-3-hydroxy-5-(2-hydroxy-5-methyl-phenyl)-1,5-dihydro-pyrrol-2-one], the IC50 (read-out: IC50) came to 3280 nM.

On to `O=C1C(O)=C(c2ccccc2)C(C(F)(F)F)N1CCCn1ccnc1` (stereo not shown) [Compound 96, 3-Hydroxy-1-(3-imidazol-1-yl-propyl)-4-phenyl-5-trifluoromethyl-1,5-dihydro-pyrrol-2-one], for which the IC50 (read-out: IC50) amounted to 400 nM.

`CCC1=C(O)C(=O)N(CCCn2ccnc2)C1C1CCC=CO1` (stereo not shown) [Compound 237, 5-(3,4-Dihydro-2H-pyran-2-yl)-4-ethyl-3-hydroxy-1-(3-imidazol-1-yl-propyl)-1,5-dihydro-pyrrol-2-one]: the IC50 (read-out: IC50) came out at 400 nM.

As for `O=C1C(O)=C(c2c[nH]c3ccccc23)C(c2cnc3ccccc3c2)N1c1ccc2[nH]cnc2c1` (stereo not shown) [Compound 422, 1-(1H-Benzoimidazol-5-yl)-3-hydroxy-4-(1H-indol-3-yl)-5-quinolin-3-yl-1,5-dihydro-pyrrol-2-one], the IC50 under setting [1] was determined as 575 nM and the IC50 (read-out: IC50) amounted to 4 nM.

In the case of `O=C1C(O)=C(c2c[nH]c3ccccc23)C(c2ccccc2F)N1CCCn1ccnc1` (stereo not shown) [Compound 144, 5-(2-Fluoro-phenyl)-3-hydroxy-1-(3-imidazol-1-yl-propyl)-4-(1H-indol-3-yl)-1,5-dihydro-pyrrol-2-one], the IC50 worked out at 1040 nM under setting [1] and 40 nM (read-out: IC50).

In the case of `CCCC(=O)C1=C(O)C(=O)N(c2ccc3[nH]cnc3c2)C1c1ccco1` (stereo not shown) [Compound 353, 1-(1H-Benzoimidazol-5-yl)-4-butyryl-5-furan-2-yl-3-hydroxy-1,5-dihydro-pyrrol-2-one], for the setting “read-out: IC50”, the IC50 was determined as 2740 nM.

With `O=C1C(O)=C(c2cccc(O)c2)C(c2ccc3nsnc3c2)N1c1ccc2[nH]cnc2c1` (stereo not shown) [Compound 269, 1-(1H-Benzoimidazol-5-yl)-5-benzo[c][1,2,5]thiadiazol-5-yl-3-hydroxy-4-(3-hydroxy-phenyl)-1,5-dihydro-pyrrol-2-one], the half-maximal inhibitory concentration (IC50) is, setting by setting: under setting [1], 22.5 nM; (read-out: IC50) 4 nM.
